The values below come from patent US20110294766A1, “16 Alpha, 17 Alpha-Acetal Glucocorticosteroidal Derivatives and their Use” (AstraZeneca AB, priority 2008, published 2011).

The structures appear in SMILES notation. pIC50: −log10 of the molar value.

Broadly, the pIC50 is the negative decadic logarithm of the IC50, by convention in mol/L.

The target in this assay is T1, recombinant human GR (Homo sapiens, UniProt P04150).
T1 construct: purchased Panvera/Invitrogen P2812 (kit P2893)
T1 sequence (P04150 1-777): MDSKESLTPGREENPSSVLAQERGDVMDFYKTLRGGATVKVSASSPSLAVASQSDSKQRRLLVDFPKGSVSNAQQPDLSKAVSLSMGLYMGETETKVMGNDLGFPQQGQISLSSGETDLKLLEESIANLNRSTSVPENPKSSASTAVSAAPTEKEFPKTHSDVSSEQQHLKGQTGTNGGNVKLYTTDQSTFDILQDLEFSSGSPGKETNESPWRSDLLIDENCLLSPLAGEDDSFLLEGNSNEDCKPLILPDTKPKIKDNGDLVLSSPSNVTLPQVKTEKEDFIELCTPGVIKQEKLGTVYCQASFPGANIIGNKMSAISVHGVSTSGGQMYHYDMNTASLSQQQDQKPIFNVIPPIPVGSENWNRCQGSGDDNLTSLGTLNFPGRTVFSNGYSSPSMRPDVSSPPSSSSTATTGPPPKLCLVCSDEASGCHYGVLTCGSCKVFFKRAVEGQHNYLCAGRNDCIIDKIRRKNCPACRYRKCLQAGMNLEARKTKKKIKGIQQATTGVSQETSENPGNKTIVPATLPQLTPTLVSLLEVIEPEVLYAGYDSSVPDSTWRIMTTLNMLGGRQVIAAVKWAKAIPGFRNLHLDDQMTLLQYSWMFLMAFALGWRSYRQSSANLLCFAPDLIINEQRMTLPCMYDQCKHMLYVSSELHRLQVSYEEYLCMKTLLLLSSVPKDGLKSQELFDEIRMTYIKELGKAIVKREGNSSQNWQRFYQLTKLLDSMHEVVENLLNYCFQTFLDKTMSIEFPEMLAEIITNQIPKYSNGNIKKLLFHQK
Nature of the assay: Human Glucocorticoid Receptor (GR) Assay (fluorescence polarization, Panvera/Invitrogen kit). The settings on record: GS Red tracer, 2 hours at room temperature, 100% control 10 μM Dexamethasone, read-out: Inhibition of GR binding, IC50. As for the experimental part:
Human Glucocorticoid Receptor (GR) Assay The assay is based on a commercial kit from Panvera/Invitrogen (Part number P2893). The assay technology is fluorescence polarization. The kit utilises recombinant human GR (Panvera, Part number P2812), a Fluoromone™ labelled tracer (GS Red, Panvera, Part number P2894) and a Stabilizing Peptide 10× (Panvera, Part number P2815). The GR and Stabilizing Peptide reagents are stored at −70° C. while the GS Red is stored at −20° C. Also included in the kit are 1M DTT (Panvera, Part number P2325, stored at −20° C.) and GR Screening buffer 10× (Panvera, Part number P2814, stored at −70° C. initially but once thawed stored at room temperature). Avoid repeated freeze/thaws for all reagents. The GR Screening buffer 10× comprises 100 mM potassium phosphate, 200 mM sodium molybdate, 1 mM EDTA and 20% DMSO. Test compounds (1 μL) and controls (1 μL) in 100% DMSO were added to black polystyrene 384-well plates (Greiner low volume black flat-bottom, part number 784076). 0% control was 100% DMSO and 100% control was 10 μM Dexamethasone. Background solution (8 μL; assay buffer 10×, Stabilizing Peptide, DTT and ice cold MQ water) was added to the background wells. GS Red solution (7 μL; assay buffer 10×, Stabilizing Peptide, DTT, GS Red and ice cold water) was added to all wells except background wells. GR solution (7 μL; assay buffer 10×, Stabilizing Peptide, DTT, GR and ice cold water) was added to all wells. The plate was sealed and incubated in a dark at room temperature for 2 hours. The plate was read in an Analyst plate reader (LJL Biosystems/Molecular Devices Corporation) or other similar plate reader capable of recording fluorescence polarization (excitation wavelength 530 nm, emission wavelength 590 nm and a dichroic mirror at 561 nm).
A general note: Fluorescence polarisation rises when a labelled molecule tumbles more slowly, as on binding a larger partner.
As to `C[C@]12C=CC(=O)C=C1[C@@H](F)C[C@H]1[C@@H]3C[C@H]4OC(c5cccs5)O[C@@]4(C(=O)SCF)[C@@]3(C)C[C@H](O)[C@@]12F` (stereo partly drawn) [Example 15, S-(Fluoromethyl)(4aS,4bR,5S,6aS,6bS,9aR,10aS,10bS,12S)-4b,12-difluoro-5-hydroxy-4a,6a-dimethyl-2-oxo-8-(2-thienyl)-2,4a,4b,5,6,6a,9a,10,10a,10b,11,12-dodecahydro-6bH-naphtho[2′,1′:4,5]indeno[1,2-d][1,3]dioxole-6b-carbothioate], the negative logarithm of the IC50 (pIC50) is 9.00.

Regarding `Cc1ccc(C2O[C@@H]3C[C@H]4[C@@H]5CCC6=CC(=O)C=C[C@]6(C)[C@H]5[C@@H](O)C[C@]4(C)[C@]3(C(=O)SCC#N)O2)c(C)c1` (stereo partly drawn) [Example 36, S-(Cyanomethyl)(4aR,4bS,5S,6aS,6bS,9aR,10aS,10bS)-8-(2,4-dimethylphenyl)-5-hydroxy-4a,6a-dimethyl-2-oxo-2,4a,4b,5,6,6a,9a,10,10a,10,11,12-dodecahydro-6bH-naphtho[2′,1′:4,5]indeno[1,2-d][1,3]dioxole-6b-carbothioate], the pIC50 is 8.57.

For `C[C@]12C=CC(=O)C=C1[C@@H](F)C[C@H]1[C@@H]3C[C@H]4OC(c5ccco5)O[C@@]4(C(=O)SCC#CCO)[C@@]3(C)C[C@H](O)[C@@]12F` (stereo partly shown) [Example 2], the negative logarithm of the IC50 (pIC50) was 8.92.

As to `C[C@]12C=CC(=O)C=C1[C@@H](F)C[C@H]1[C@@H]3C[C@H]4OC(c5cc6ccccc6o5)O[C@@]4(C(=O)SCF)[C@@]3(C)C[C@H](O)[C@@]12F` (stereo partly drawn) [Example 12, S-(Fluoromethyl)(4aS,4bR,5S,6aS,6bS,9aR,10aS,10bS,12S)-8-(1-benzofuran-2-yl)-4b,12-difluoro-5-hydroxy-4a,6a-dimethyl-2-oxo-2,4a,4b,5,6,6a,9a,10,10a,10b,11,12-dodecahydro-6bH-naphtho[2′,1′:4,5]indeno[1,2-d][1,3]dioxole-6b-carbothioate], the pIC50 was 9.07.

Turning to `C[C@]12C=CC(=O)C=C1[C@@H](F)C[C@H]1[C@@H]3C[C@H]4OC(c5ccc(C(F)(F)F)cc5)O[C@@]4(C(=O)SCF)[C@@]3(C)C[C@H](O)[C@@]12F` (stereo partly drawn) [Example 18, S-(Fluoromethyl)(4aS,4bR,5S,6aS,6bS,9aR,10aS,10bS,12S)-4b,12-difluoro-5-hydroxy-4a,6a-dimethyl-2-oxo-8-[4-(trifluoromethyl)phenyl]-2,4a,4b,5,6,6a,9a,10,10a,10b,11,12-dodecahydro-6bH-naphtho[2′,1′:4,5]indeno[1,2-d][1,3]dioxole-6b-carbothioate], the pIC50 was 8.43.

Turning to `C[C@]12C=CC(=O)C=C1[C@@H](F)C[C@H]1[C@@H]3C[C@H]4O[C@@H](c5ccccc5)O[C@@]4(C(=O)SCC#N)[C@@]3(C)C[C@H](O)[C@@]12F` [Example 31, S-(Cyanomethyl)(4aS,4bR,5S,6aS,6bS,9aR,10aS,10bS,12S)-4b,12-difluoro-5-hydroxy-4a,6a-dimethyl-2-oxo-8-phenyl-2,4a,4b,5,6,6a,9a,10,10a,10b,11,12-dodecahydro-6bH-naphtho[2′,1′:4,5]indeno[1,2-d][1,3]dioxole-6b-carbothioate], the pIC50 is 9.01.

For the compound `Cc1ccc(C2O[C@@H]3C[C@H]4[C@@H]5C[C@H](F)C6=CC(=O)C=C[C@]6(C)[C@@]5(F)[C@@H](O)C[C@]4(C)[C@]3(C(=O)SCC#N)O2)cc1` (stereo partly drawn) [Example 24, S-(Cyanomethyl)(4aS,4bR,5S,6aS,6bS,9aR,10aS,10bS,12S)-4b,12-difluoro-5-hydroxy-4a,6a-dimethyl-8-(4-methylphenyl)-2-oxo-2,4a,4b,5,6,6a,9a,10,10a,10b,11,12-dodecahydro-6bH-naphtho[2′,1′:4,5]indeno[1,2-d][1,3]dioxole-6b-carbothioate], the pIC50 was 8.92.
